Here are results for eleven compounds from patent US20170044100A1, “INHIBITORS OF DRUG-RESISTANT MYCOBACTERIUM TUBERCULOSIS” (THE JOHNS HOPKINS UNIVERSITY, priority 2014, published 2017).

Converted amounts (≈) assume the structure as drawn.

Experiment [1] has as its system M. tuberculosis IAR2 (mmpL3 S288T mutant). The class given is cell-based, Mycobacterium tuberculosis.
The test system of experiment [2] is TF274 (extensively drug resistant strain of M. tuberculosis). The experiment can be described thus: microbe, parasite or virus in culture. The class given is cell-based. As to conditions: Mycobacterium tuberculosis; read-out: MIC TF274 (XDR).
Experiment [3] concerns KZN494 (multi-drug resistant strain of M. tuberculosis). The experiment in a line: microbe, parasite or virus in culture. It counts as cell-based. As to conditions: Mycobacterium tuberculosis; read-out: MIC KZN494 (MDR).
The subject of experiment [4] is R506 (extensively drug resistant strain of M. tuberculosis). The experiment in a line: microbe, parasite or virus in culture. The settings on record: Mycobacterium tuberculosis; read-out: MIC R506 (XDR). The class given is cell-based.
Experiment [5] concerns V2475 (multi-drug resistant strain of M. tuberculosis). The experiment can be described thus: microbe, parasite or virus in culture. As to conditions: Mycobacterium tuberculosis; read-out: MIC V2475 (MDR). It counts as cell-based.

Turning to `NCC[C@H](O)C(=O)N[C@@H]1C[C@H](N)[C@@H](O[C@H]2O[C@H](CN)[C@@H](O)[C@H](O)[C@H]2O)[C@H](O)[C@H]1O[C@H]1O[C@H](CO)[C@@H](O)[C@H](N)[C@H]1O` [Amikacin], in experiment [1], the “Fold change in MIC for IAR2” value is listed as 0 and the “MIC for IAR2” value came to 1 µg/mL.
Turning to `Cc1cc(C)c2cc(C(=O)NC3CCCCC3)[nH]c2c1` [Compound 3, N-Cyclohexyl-4,6-dimethyl-1H-indole-2-carboxamide], the MIC in experiment [2] is 0.46 µM (≈ 0.124 µg/mL); in experiment [3], 3.7 µM (≈ 1 µg/mL); in experiment [4], 0.46 µM (≈ 0.124 µg/mL); in experiment [5] it was 0.93 to 1.9 µM (≈ 0.251 to 0.514 µg/mL). Further, the “Fold change in MIC for IAR2” value in experiment [1] is “≧(512-1024)”. Besides, the “MIC for IAR2” value in experiment [1] is reported as “≧128 μg/mL”. In addition, the “MIC upshift for IAR2 versus H37Rv” value in experiment [1] is no less than 1024 fold.
Turning to `Cc1cc(C)c2cc(C(=O)NC3CCCCCC3)[nH]c2c1` [Compound 11, N-Cycloheptyl-4,6-dimethyl-1H-indole-2-carboxamide], the MIC was 0.055 µM (≈ 0.0156 µg/mL) in experiment [2], 0.11 µM (≈ 0.0313 µg/mL) in experiment [3], 0.055 µM (≈ 0.0156 µg/mL) in experiment [4] and 0.11 µM (≈ 0.0313 µg/mL) in experiment [5]. Moreover, the “Fold change in MIC for IAR2” value in experiment [1] is given as 32-64. For the same compound, the “MIC for IAR2” value in experiment [1] came to 1 µg/mL.
Turning to `Cc1cc(C)c2cc(C(=O)NC3CCCCCCC3)[nH]c2c1` [Compound 12, N-Cyclooctyl-4,6-dimethyl-1H-indole-2-carboxamide], the MIC in experiment [2] came out at 0.026 µM (≈ 0.00776 µg/mL). In experiment [1], the “Fold change in MIC for IAR2” value was determined as 64 and the “MIC for IAR2” value came out at 0.25 µg/mL. Also, the MIC in experiment [4] stood at 0.0067 µM (≈ 0.002 µg/mL).
In the case of `CC[C@@H](CO)NCCN[C@@H](CC)CO` [Ethambutol], in experiment [1], the “Fold change in MIC for IAR2” value stood at 0 and the “MIC for IAR2” value stood at 1 µg/mL.
For the compound `NNC(=O)c1ccncc1` [Isoniazid, reference compound], in experiment [1], the “Fold change in MIC for IAR2” value is given as 0 and the “MIC for IAR2” value is 0.04 µg/mL.
Consider `CO[C@H]1/C=C/O[C@@]2(C)Oc3c(C)c(O)c4c(O)c(c(/C=N/N5CCN(C)CC5)c(O)c4c3C2=O)NC(=O)/C(C)=C\C=C\[C@H](C)[C@H](O)[C@@H](C)[C@@H](O)[C@@H](C)[C@H](OC(C)=O)[C@@H]1C` [Rifampin], for which, in experiment [1], the “Fold change in MIC for IAR2” value came out at 0.25, the “MIC for IAR2” value amounted to 0.03125 µg/mL and the “MIC for IAR2 compared with H37Rv” value was “lower MIC value”.
Consider `CC(C)=CCC/C(C)=C/CNCCNC1C2CC3CC(C2)CC1C3` (stereo not shown) [SQ109], for which, in experiment [1], the “Fold change in MIC for IAR2” value is 16 and the “MIC for IAR2” value came to 4 µg/mL.
AU1235: in experiment [1], the “MIC for IAR2” value is greater than 64 µg/mL.
For the compound BM212, in experiment [1], the “Fold change in MIC for IAR2” value was determined as 2, the “MIC for IAR2” value is 4 µg/mL and the “MIC upshift for IAR2 versus H37Rv” value is 2 fold.
Regarding Capreomycin, in experiment [1], the “Fold change in MIC for IAR2” value worked out at 0 and the “MIC for IAR2” value was found to be 1 µg/mL.
